Source: publication PMC8330100, “Similarities and differences in the localization, trafficking, and function of P-glycoprotein in MDR1-EGFP-transduced rat versus human brain capillary endothelial cell lines” (Fluids and Barriers of the CNS, 2021)

Legend:
[1] = molecular target: Pgp in hCMEC/D3-MDR1-EGFP monolayers (Homo sapiens, UniProt P08183); details: [3H]dLop 5 nM
Experimental: (§1) For these experiments, a concentration equilibrium transport assay (CETA) was used, which is more sensitive to identify Pgp substrates than conventional bidirectional (concentration gradient) transport assays. In the CETA, the drug is added to both (apical and basolateral) sides of the monolayer, so that the initial drug concentration is the same in both compartments, thereby minimizing the effect of passive diffusion across the cell monolayer.
(§2) In the present study, the CETA assay was used to determine the flux of the radiolabeled Pgp substrate [N-methyl-^3H]N-desmethyl loperamide ([^3H]dLop) across hCMEC/D3-MDR1-EGFP and RBE4-MDR1-EGFP monolayers. […] Cells were grown on permeable ThinCert® filter supports (12-well, 0.4 µm pore size, PET, Greiner Bio-One). […] Transport studies were performed in triplicates seven days after seeding. […] After 30, 60, 120, 180, and 240 min, samples of 50 µL and 70 µL were retrieved from the apical and basolateral chambers, respectively. Quantification of substrate transport was conducted by liquid scintillation counting using a 1450 Microbeta Trilux liquid scintillation counter (Perkin Elmer Wallac). […] Baseline dLop levels were corrected by the amount of dLop absorbed by the filter system as measured in blank inserts without cells. […]

[2] = molecular target: Pgp in RBE4-MDR1-EGFP monolayers (Homo sapiens, UniProt P08183); details: [3H]dLop 5 nM
Experimental: as §1, §2

[3] = molecular target: Pgp in LLC-MDR1 monolayers (Homo sapiens, UniProt P08183); details: [3H]dLop 5 nM
Pgp in rBCECs = details: cited from earlier work
RBE4-MDR1-EGFP cells [4] = test: Doxorubicin toxicity with or without Pgp inhibition by tariquidar, RBE4-MDR1-EGFP; type: cell-based, rat; details: doxorubicin 10 µM, 30 min
Experimental: (§3) For analysis of the effects of doxorubicin on Pgp-inhibited cells, confluent monolayers of RBE4- and hCMEC/D3-MDR1-EGFP cells grown on coverslips were preincubated with or without the Pgp inhibitor tariquidar (0.5 µM, 1 h, 37 °C) in Opti-MEM before the addition of doxorubicin (10 µM, 30 min, 37 °C). After substrate incubation, cells were covered with cell culture medium for 24 h. Cells were then washed once with PBS, fixed with paraformaldehyde (4%, 30 min), and permeabilized with Triton X-100 (1%, 5 min). Finally, cells were washed and coverslips were mounted in Prolong Gold antifade (Carl Roth GmbH, Karlsruhe, Germany) containing 4’,6-diamidino-2-phenylindole (DAPI) to stain nuclei. Analysis was performed with a Zeiss Axio Observer fluorescence microscope including an ApoTome.2 and using a 40× or 63× objective.

hCMEC/D3-MDR1-EGFP cells [5] = test: Doxorubicin toxicity with or without Pgp inhibition by tariquidar, hCMEC/D3-MDR1-EGFP; type: cell-based, human; details: doxorubicin 10 µM, 30 min
Experimental: as §3

RBE4-MDR1-EGFP cells [6] = test: Count of Pgp-EGFP-positive intracellular vesicles before and 24 h after doxorubicin, RBE4-MDR1-EGFP; type: cell-based, rat; details: doxorubicin 10 µM, 30 min, 24 h after treatment
Experimental: (§4) To evaluate the number of green-fluorescent (Pgp-EGFP positive) intracellular vesicles in RBE4- and hCMEC/D3-MDR1-EGFP cells before and 24 h after treatment with doxorubicin (10 µM, 30 min, 37 °C), imaging of the cells was performed using an inverted fluorescence microscope Lumascope 620 (Etaluma Carlsbach, USA) placed in the cell culture incubator. After treatment with doxorubicin, cells were maintained in a doxorubicin-free cell culture medium until imaging. Before imaging, cellular debris was removed by washing the cells twice with sterile PBS followed by the addition of fresh doxorubicin-free culture medium.

hCMEC/D3-MDR1-EGFP cells [7] = test: Count of Pgp-EGFP-positive intracellular vesicles before and 24 h after doxorubicin, hCMEC/D3-MDR1-EGFP; type: cell-based, human; details: doxorubicin 10 µM, 30 min, 24 h after treatment
Experimental: as §4

In the case of `[3H]CNC(=O)C(CCN1CCC(O)(c2ccc(Cl)cc2)CC1)(c1ccccc1)c1ccccc1` [dLop, [N-methyl-^3H]N-desmethyl loperamide], the “asymmetrical (basolateral to apical) transport in CETA” value (shortened to “asymmetrical”) [1] is reported as “not observed”, the “asymmetrical” value [2] is reported as “not observed” and the “asymmetrical” value [3] is reported as “such transport was obtained”.

For `COc1ccc(C[C@H](N)C(=O)N[C@H]2[C@@H](O)[C@H](n3cnc4c(N(C)C)ncnc43)O[C@@H]2CO)cc1` [puromycin], the “effect of drug exposure on Rho123 accumulation” value (Pgp in rBCECs) is given as “significantly reduced”.

In the case of `COc1cccc2c1C(=O)c1c(O)c3c(c(O)c1C2=O)C[C@@](O)(C(=O)CO)C[C@@H]3O[C@H]1C[C@H](N)[C@H](O)[C@H](C)O1` [doxorubicin], the “toxicity 24 h after exposure, Pgp inhibited” value (RBE4-MDR1-EGFP cells [4]; after tariquidar 0.5 µM) is reported as “cell death”, the “toxicity 24 h after exposure, absence of Pgp inhibition” value (RBE4-MDR1-EGFP cells [4]; no tariquidar) is reported as “without any signs of toxicity” and the “toxicity 24 h after exposure, Pgp inhibited” value (hCMEC/D3-MDR1-EGFP cells [5]; after tariquidar 0.5 µM) is reported as “cell death”. The “toxicity 24 h after exposure, absence of Pgp inhibition” value (hCMEC/D3-MDR1-EGFP cells [5]; no tariquidar) was “without any signs of toxicity”, the “increase of average number of Pgp-EGFP-positive vesicles per cell” value (RBE4-MDR1-EGFP cells [6]) was 220% and the “increase of average number of Pgp-EGFP-positive vesicles per cell” value (hCMEC/D3-MDR1-EGFP cells [7]) was 170%.
